Measurements taken from the supplement of paper PMC10307832.

Experiments:
Assay in all cases: relative viability (nuclei count vs DMSO), 5 days (fraction); higher = more cells survive
XMD8-85 + Dasatinib = compound: CN1CCN(CC1)C2=CC(=C(C=C2)NC3=NC=C4C(=N3)N(C5=CC=CC=C5C(=O)N4C)C)OC [XMD8-85] + Cc1nc(Nc2ncc(C(=O)Nc3c(C)cccc3Cl)s2)cc(N2CCN(CCO)CC2)n1 [Dasatinib] (partner 0.075 µM)
Procedure, shortened: (§1)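 Lung cancer cell lines were pin-tool dosed in 1536-well plates on the day after seeding, with either a lone drug or a fixed anchor-drug dose plus five library-drug doses (not always all listed) in √10 steps. Nuclei were counted on 4× images after 5 days. Relative viability is the ratio of treated-well to vehicle-well nuclei counts, with each value a median of duplicate plates.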

4EGI-1 + Lapatinib = compound: O=C(O)C(Cc1ccccc1[N+](=O)[O-])=NNc1nc(-c2ccc(Cl)c(Cl)c2)cs1 (mixture of isomers) [4EGI-1] + CS(=O)(=O)CCNCc1ccc(-c2ccc3ncnc(Nc4ccc(OCc5cccc(F)c5)c(Cl)c4)c3c2)o1 [Lapatinib] (partner 2 µM)
Procedure, shortened: as §1

XMD8-85 + Pemetrexed = compound: CN1CCN(CC1)C2=CC(=C(C=C2)NC3=NC=C4C(=N3)N(C5=CC=CC=C5C(=O)N4C)C)OC [XMD8-85] + Nc1nc2[nH]cc(CCc3ccc(C(=O)N[C@@H](CCC(=O)O)C(=O)O)cc3)c2c(=O)[nH]1 [Pemetrexed] (partner 0.2 µM)
Procedure, shortened: as §1

XMD8-85 + Linsitinib = compound: CN1CCN(CC1)C2=CC(=C(C=C2)NC3=NC=C4C(=N3)N(C5=CC=CC=C5C(=O)N4C)C)OC [XMD8-85] + C[C@]1(O)C[C@@H](c2nc(-c3ccc4ccc(-c5ccccc5)nc4c3)c3c(N)nccn32)C1 [Linsitinib] (partner 1 µM)
Procedure, shortened: as §1

Row | Cell Line | relative viability (XMD8-85 + Dasatinib; first compound 0.253 µM) | relative viability (XMD8-85 + Dasatinib; first compound 0.8 µM) | relative viability (XMD8-85 + Dasatinib; first compound 2.53 µM) | relative viability (XMD8-85 + Dasatinib; first compound 8 µM) | relative viability (4EGI-1 + Lapatinib; first compound 0.5 µM) | relative viability (4EGI-1 + Lapatinib; first compound 5 µM) | relative viability (4EGI-1 + Lapatinib; first compound 15.81 µM) | relative viability (4EGI-1 + Lapatinib; first compound 50 µM) | relative viability (XMD8-85 + Pemetrexed; first compound 0.08 µM) | relative viability (XMD8-85 + Pemetrexed; first compound 0.253 µM) | relative viability (XMD8-85 + Pemetrexed; first compound 0.8 µM) | relative viability (XMD8-85 + Pemetrexed; first compound 2.53 µM) | relative viability (XMD8-85 + Pemetrexed; first compound 8 µM) | relative viability (XMD8-85 + Linsitinib; first compound 0.08 µM) | relative viability (XMD8-85 + Linsitinib; first compound 0.253 µM) | relative viability (XMD8-85 + Linsitinib; first compound 0.8 µM) | relative viability (XMD8-85 + Linsitinib; first compound 2.53 µM) | relative viability (XMD8-85 + Linsitinib; first compound 8 µM) | relative viability (XMD8-85 + Dasatinib; first compound 0.08 µM) | relative viability (4EGI-1 + Lapatinib; first compound 1.581 µM)
1 | LK-2 | 0.305 | 0.262 | 0.261 | 0.222 | 1.04 | 0.978 | 0.984 | 0.745 | 0.322 | 0.289 | 0.282 | 0.212 | 0.173 | 0.524 | 0.52 | 0.498 | 0.365 | 0.445 | – | –
2 | EPLC-272H | 0.253 | 0.4 | 0.501 | 0.25 | 1.03 | 0.909 | 0.624 | 0.39 | 0.279 | 0.318 | 0.314 | 0.223 | 0.36 | – | 1.24 | 1.02 | 1.2 | 0.912 | 0.33 | 0.501
3 | HCC-366 | 0.828 | 0.642 | 0.74 | 0.601 | 1.03 | 1.02 | 1.03 | 0.134 | 0.147 | 0.163 | 0.146 | 0.129 | 0.168 | 0.69 | 0.687 | 0.764 | – | 0.352 | 0.552 | 0.632
4 | NCI-H1793 | 0.403 | 0.404 | 0.413 | 0.338 | 0.637 | 0.556 | 0.814 | 0.402 | – | 0.824 | 0.839 | 1.18 | 0.645 | 0.78 | 0.703 | 1.04 | 0.976 | 0.907 | 0.384 | 0.886
5 | NCI-H3122 | – | 0.984 | 0.861 | 0.794 | 1.05 | 1.02 | 0.955 | 0.578 | 0.178 | 0.201 | 0.203 | 0.213 | 0.172 | 1.03 | 0.95 | 1.03 | 1.06 | 1.09 | 0.933 | 0.922
6 | NCI-H596 | 0.541 | 0.553 | 0.556 | 0.545 | 1.07 | 1.23 | 0.958 | 0.609 | 0.477 | – | 0.457 | 0.465 | 0.368 | 0.956 | 1.12 | 1.08 | 0.961 | 0.628 | 0.599 | 1.03
7 | NCI-H2342 | 0.316 | 0.32 | 0.32 | 0.331 | – | – | – | – | 0.808 | 0.805 | 0.891 | 0.828 | 0.775 | – | – | – | – | – | 0.296 | –
8 | LCLC-103H | 0.476 | 0.575 | 0.505 | 0.379 | – | – | – | – | 0.426 | 0.452 | 0.401 | 0.432 | 0.398 | 1.05 | 1.03 | 1.12 | 1.19 | 0.857 | 0.425 | –
9 | Calu-6 | – | – | – | – | 1.07 | 1.03 | 1 | 0.206 | – | – | – | – | – | 0.985 | 0.946 | 0.994 | 0.894 | 0.788 | – | 1
10 | NCI-H1299 | – | – | – | – | 0.932 | 1.02 | 0.987 | 0.357 | – | – | – | – | – | 0.881 | 1.06 | 0.973 | 0.981 | 0.654 | – | 0.957
11 | NCI-H1650 | 0.313 | 0.365 | 0.271 | 0.192 | 0.953 | 0.825 | 0.374 | 0.256 | 0.376 | 0.384 | 0.384 | 0.306 | 0.294 | – | – | – | – | – | 0.34 | –
12 | NCI-H2170 | 0.562 | 0.526 | 0.564 | 0.548 | 0.32 | 0.289 | 0.264 | 0.235 | 0.258 | 0.28 | 0.264 | 0.269 | 0.286 | – | – | – | – | – | 0.574 | 0.266
13 | EBC-1 | – | – | – | – | 0.205 | 0.201 | 0.217 | 0.166 | – | – | – | – | – | 0.683 | 0.856 | 0.753 | 0.811 | 0.293 | – | 0.246
14 | NCI-H1703 | – | – | – | – | 1.46 | 1.17 | 1.22 | 0.437 | – | – | – | – | – | 0.496 | 1.1 | – | 0.773 | 0.641 | – | 0.955
15 | NCI-H441 | 0.576 | 0.728 | 0.715 | 0.516 | – | – | – | – | 0.263 | 0.261 | 0.247 | 0.279 | 0.256 | 0.473 | 0.683 | 0.647 | 0.5 | 0.388 | 0.42 | –
16 | NCI-H1648 | – | – | – | – | – | – | – | – | – | 0.693 | 0.826 | 0.765 | 0.692 | – | – | – | – | – | – | –
17 | HCC-44 | – | – | – | – | 0.985 | 0.929 | 0.809 | 0.366 | 0.65 | 0.701 | 0.647 | 0.597 | 0.632 | 0.714 | 0.749 | 0.642 | 0.499 | 0.346 | – | 0.802
18 | SW 900 | 0.608 | 0.641 | 0.549 | 0.417 | – | – | – | – | 0.46 | 0.505 | 0.506 | 0.477 | 0.282 | – | – | – | – | – | 0.615 | –
19 | NCI-H522 | 0.867 | 0.818 | 0.944 | 0.909 | – | – | – | – | 0.762 | 0.916 | 1.01 | 1.08 | 0.825 | – | – | – | – | – | 0.858 | –
20 | ChaGo-K-1 | – | 0.613 | 0.57 | 0.577 | – | – | – | – | 0.276 | 0.268 | 0.26 | 0.248 | 0.232 | – | – | – | – | – | 0.449 | –
